Assay results reported in the supplement of paper PMC5908809.

What was measured:
[1] = tested on: normal NK cells expanded with K562-aAPC; assay: percent inhibition of viability; higher = more inhibition; conditions: 72 h, IL-2 2.5 ng/mL
Experimental: (§1)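 Drug sensitivity and resistance testing on K562-aAPC-expanded normal NK cells: 5 concentrations (10-fold steps over a 10,000-fold range), 72 h at 37 °C, viability by CellTiter-Glo normalised to DMSO and benzethonium chloride controls; DSS from the fitted curve.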

[2] = tested on: normal NK cells expanded with K562-aAPC; assay: drug sensitivity score (DSS) (DSS units); higher = more sensitive; extreme values may be limits of the assay; conditions: 72 h; IL-2 2.5 ng/mL
Experimental: as §1

NK-92 (IL-2 2.5 ng/mL) [3] = assay: percent inhibition of viability; higher = more inhibition; conditions: 72 h
NKL (IL-2 2.5 ng/mL) [4] = assay: as above; conditions: 72 h
[5] = tested on: normal primary NK cells, pool 1 (3 donors), resting (IL-2 0 ng/mL); assay: as above; conditions: 72 h
[6] = tested on: normal primary NK cells, pool 3 (3 donors) (IL-2 2.5 ng/mL); assay: as above; conditions: 72 h
KAI3 (IL-2 2.5 ng/mL) [7] = assay: as above; conditions: 72 h
[8] = tested on: normal primary NK cells, pool 1 (3 donors) (IL-2 2.5 ng/mL); assay: as above; conditions: 72 h
SNK-6 (IL-2 2.5 ng/mL) [9] = assay: as above; conditions: 72 h
KHYG-1 (IL-2 2.5 ng/mL) [10] = assay: as above; conditions: 72 h
YT (IL-2 2.5 ng/mL) [11] = assay: as above; conditions: 72 h
DERL-7 (IL-2 2.5 ng/mL) [12] = assay: as above; conditions: 72 h
IMC-1 (IL-2 20 ng/mL) [13] = assay: as above; conditions: 72 h
[14] = tested on: normal primary NK cells, pool 2 (3 donors) (IL-2 2.5 ng/mL); assay: as above; conditions: 72 h
NK-YS (IL-2 2.5 ng/mL) [15] = assay: as above; conditions: 72 h
NK-92 (IL-2 2.5 ng/mL) [16] = assay: drug sensitivity score (DSS) (DSS units); higher = more sensitive; extreme values may be limits of the assay; conditions: 72 h
NKL (IL-2 2.5 ng/mL) [17] = assay: as above; conditions: 72 h
[18] = tested on: normal primary NK cells, pool 1 (3 donors), resting (IL-2 0 ng/mL); assay: as above; conditions: 72 h
[19] = tested on: normal primary NK cells, pool 3 (3 donors) (IL-2 2.5 ng/mL); assay: as above; conditions: 72 h
KAI3 (IL-2 2.5 ng/mL) [20] = assay: as above; conditions: 72 h
[21] = tested on: normal primary NK cells, pool 1 (3 donors) (IL-2 2.5 ng/mL); assay: as above; conditions: 72 h
SNK-6 (IL-2 2.5 ng/mL) [22] = assay: as above; conditions: 72 h
KHYG-1 (IL-2 2.5 ng/mL) [23] = assay: as above; conditions: 72 h
YT (IL-2 2.5 ng/mL) [24] = assay: as above; conditions: 72 h
DERL-7 (IL-2 2.5 ng/mL) [25] = assay: as above; conditions: 72 h
IMC-1 (IL-2 20 ng/mL) [26] = assay: as above; conditions: 72 h
[27] = tested on: normal primary NK cells, pool 2 (3 donors) (IL-2 2.5 ng/mL); assay: as above; conditions: 72 h
NK-YS (IL-2 2.5 ng/mL) [28] = assay: as above; conditions: 72 h

O=C(CCCCCCC(=O)Nc1ccccc1)NO [Vorinostat] (max concentration tested 10000 nM)
percent inhibition of viability [%]
Conditions | 1 nM | 10 nM | 100 nM | 1000 nM | 10000 nM
DERL-7 (IL-2 2.5 ng/mL) [12] | -1.03 | -2.59 | -8.59 | 72 | 101
IMC-1 (IL-2 20 ng/mL) [13] | -3.93 | -0.96 | -3.21 | 10.4 | 101
KAI3 (IL-2 2.5 ng/mL) [7] | -1.17 | 1.24 | 28.6 | 72.4 | 106
KHYG-1 (IL-2 2.5 ng/mL) [10] | -10.8 | -5.48 | -3.11 | 83.4 | 108
NK-92 (IL-2 2.5 ng/mL) [3] | -12.1 | -8.53 | 8.96 | 76.6 | 107
NK-YS (IL-2 2.5 ng/mL) [15] | -9.89 | -6.61 | -3.67 | 40.2 | 105
NKL (IL-2 2.5 ng/mL) [4] | -8.87 | -13.6 | 15.1 | 78.1 | 107
SNK-6 (IL-2 2.5 ng/mL) [9] | 1.27 | -7.67 | 9.77 | 59.8 | 100
YT (IL-2 2.5 ng/mL) [11] | -0.8 | -1.86 | 3.47 | 27.2 | 106
[1] | -0.79 | -2.42 | 2.48 | 56.2 | 100
[5] | -1.81 | 11.6 | 10.4 | 71.9 | 90.8
[6] | -8.36 | -6.48 | 0.69 | 14.9 | 98.3
[8] | 10.5 | 10 | 21.7 | 67.8 | 98.3
[14] | -5.53 | -2.6 | -3.11 | 42.6 | 96.4

Conditions | drug sensitivity score
DERL-7 (IL-2 2.5 ng/mL) [25] | 13.7
IMC-1 (IL-2 20 ng/mL) [26] | 7.28
KAI3 (IL-2 2.5 ng/mL) [20] | 17.3
KHYG-1 (IL-2 2.5 ng/mL) [23] | 15.2
NK-92 (IL-2 2.5 ng/mL) [16] | 15.4
NK-YS (IL-2 2.5 ng/mL) [28] | 10.9
NKL (IL-2 2.5 ng/mL) [17] | 16.4
SNK-6 (IL-2 2.5 ng/mL) [22] | 13
YT (IL-2 2.5 ng/mL) [24] | 9.63
[2] | 12.2
[18] | 14.8
[19] | 7.93
[21] | 15.7
[27] | 10.8

Nc1ccccc1NC(=O)c1ccc(CNc2nccc(-c3cccnc3)n2)cc1 [Mocetinostat] (max concentration tested 10000 nM)
percent inhibition of viability [%]
Conditions | 1 nM | 10 nM | 100 nM | 1000 nM | 10000 nM
DERL-7 (IL-2 2.5 ng/mL) [12] | -3.82 | -7.01 | -13.8 | 99.3 | 101
IMC-1 (IL-2 20 ng/mL) [13] | -6.53 | -6.19 | 4.71 | 98.2 | 101
KAI3 (IL-2 2.5 ng/mL) [7] | -5.2 | 1.15 | 22.6 | 77.3 | 104
KHYG-1 (IL-2 2.5 ng/mL) [10] | -6.09 | -6.23 | -4.57 | 100 | 105
NK-92 (IL-2 2.5 ng/mL) [3] | -18.8 | -10.3 | 8.7 | 99.6 | 105
NK-YS (IL-2 2.5 ng/mL) [15] | -9.56 | -10.2 | -10.2 | 71.5 | 102
NKL (IL-2 2.5 ng/mL) [4] | -8.5 | -7.5 | 22.2 | 98.2 | 106
SNK-6 (IL-2 2.5 ng/mL) [9] | -6.1 | -9.13 | 11.2 | 96.4 | 100
YT (IL-2 2.5 ng/mL) [11] | -3.42 | -2.92 | 3.45 | 48.2 | 104
[1] | -2.73 | -8.59 | -12.3 | 81.4 | 100
[5] | 6.94 | 10 | 2.89 | 76.2 | 88.4
[6] | -0.12 | -0.69 | 5.62 | 57.3 | 94.5
[8] | 0.77 | 13.7 | 15.1 | 47 | 90.7
[14] | -2.61 | -1 | -6.41 | 66.8 | 94.1

Conditions | drug sensitivity score
DERL-7 (IL-2 2.5 ng/mL) [25] | 17
IMC-1 (IL-2 20 ng/mL) [26] | 18.4
KAI3 (IL-2 2.5 ng/mL) [20] | 17.2
KHYG-1 (IL-2 2.5 ng/mL) [23] | 17.6
NK-92 (IL-2 2.5 ng/mL) [16] | 19.3
NK-YS (IL-2 2.5 ng/mL) [28] | 13.7
NKL (IL-2 2.5 ng/mL) [17] | 21.4
SNK-6 (IL-2 2.5 ng/mL) [22] | 19.4
YT (IL-2 2.5 ng/mL) [24] | 11.6
[2] | 14.8
[18] | 14.3
[19] | 12.2
[21] | 11.4
[27] | 12.9

CN(C)CCN1C(=O)c2cccc3cc(N)cc(c23)C1=O [Amonafide] (max concentration tested 10000 nM)
percent inhibition of viability [%]
Conditions | 1 nM | 10 nM | 100 nM | 1000 nM | 10000 nM
DERL-7 (IL-2 2.5 ng/mL) [12] | -0.77 | 2.31 | -12.6 | 19.6 | 101
IMC-1 (IL-2 20 ng/mL) [13] | 1.06 | 3.1 | 5.35 | 15.8 | 100
KAI3 (IL-2 2.5 ng/mL) [7] | 12.7 | 9.96 | 3.38 | 35.1 | 103
KHYG-1 (IL-2 2.5 ng/mL) [10] | 6.52 | 2.23 | 12.9 | 14.8 | 103
NK-92 (IL-2 2.5 ng/mL) [3] | 17.3 | 3.38 | 20.4 | 29.9 | 103
NK-YS (IL-2 2.5 ng/mL) [15] | 2.33 | 5.61 | 10.8 | 30.8 | 102
NKL (IL-2 2.5 ng/mL) [4] | -9.44 | 0.79 | -4.03 | 33.1 | 89.8
SNK-6 (IL-2 2.5 ng/mL) [9] | 21.2 | 8.85 | 20.2 | 23.6 | 99.5
YT (IL-2 2.5 ng/mL) [11] | 3.19 | 6.52 | 7.92 | 11.9 | 104
[1] | 3.02 | 8.13 | 5.46 | 27.6 | 101
[5] | 6.85 | -15.8 | -2.6 | 9.89 | 89.3
[6] | 5.44 | -1.16 | 1.98 | 8.95 | 98.1
[8] | -3.82 | -10.6 | -8.88 | -6.27 | 97.5
[14] | -8.57 | -3.21 | 0.92 | 6.12 | 95

Conditions | drug sensitivity score
DERL-7 (IL-2 2.5 ng/mL) [25] | 8.69
IMC-1 (IL-2 20 ng/mL) [26] | 8.17
KAI3 (IL-2 2.5 ng/mL) [20] | 10.4
KHYG-1 (IL-2 2.5 ng/mL) [23] | 8.07
NK-92 (IL-2 2.5 ng/mL) [16] | 9.91
NK-YS (IL-2 2.5 ng/mL) [28] | 10
NKL (IL-2 2.5 ng/mL) [17] | 9.52
SNK-6 (IL-2 2.5 ng/mL) [22] | 8.74
YT (IL-2 2.5 ng/mL) [24] | 7.63
[2] | 9.65
[18] | 6.59
[19] | 6.87
[21] | 4.95
[27] | 6.19

O=C(CCCCCCNC(=O)c1cnc(N(c2ccccc2)c2ccccc2)nc1)NO [Rocilinostat] (max concentration tested 10000 nM)
percent inhibition of viability [%]
Conditions | 1 nM | 10 nM | 100 nM | 1000 nM | 10000 nM
DERL-7 (IL-2 2.5 ng/mL) [12] | -3.48 | -3.35 | -1.28 | 14.9 | 99.9
IMC-1 (IL-2 20 ng/mL) [13] | -4.44 | -8.29 | -0.57 | 8.19 | 100
KAI3 (IL-2 2.5 ng/mL) [7] | 0.64 | -3.56 | 4.44 | 55.4 | 96.6
KHYG-1 (IL-2 2.5 ng/mL) [10] | 3.34 | 0.58 | -3.42 | 47.2 | 101
NK-92 (IL-2 2.5 ng/mL) [3] | -11.1 | -18.3 | 11.4 | 41 | 102
NK-YS (IL-2 2.5 ng/mL) [15] | 2.13 | -8.18 | 0.48 | 22.7 | 98.8
NKL (IL-2 2.5 ng/mL) [4] | -10.5 | -16 | -8.09 | 62.8 | 104
SNK-6 (IL-2 2.5 ng/mL) [9] | -5.08 | -17.2 | -1.48 | 31.4 | 97.9
YT (IL-2 2.5 ng/mL) [11] | 0.06 | -7.38 | -4.05 | 18.3 | 101
[1] | -3.43 | -1.33 | -2.48 | 24.8 | 99.9
[5] | 8.2 | -4.24 | 18.1 | 59.2 | 90.9
[6] | -3.33 | -0.54 | 6.26 | 8.12 | 96.7
[8] | 2.06 | 3.65 | 16.7 | 40.9 | 97.5
[14] | -7.32 | -6.43 | 5.49 | 23.4 | 94

Conditions | drug sensitivity score
DERL-7 (IL-2 2.5 ng/mL) [25] | 8.01
IMC-1 (IL-2 20 ng/mL) [26] | 6.83
KAI3 (IL-2 2.5 ng/mL) [20] | 12
KHYG-1 (IL-2 2.5 ng/mL) [23] | 11.5
NK-92 (IL-2 2.5 ng/mL) [16] | 10.4
NK-YS (IL-2 2.5 ng/mL) [28] | 9.02
NKL (IL-2 2.5 ng/mL) [17] | 12.8
SNK-6 (IL-2 2.5 ng/mL) [22] | 9.9
YT (IL-2 2.5 ng/mL) [24] | 8.53
[2] | 9.32
[18] | 13.4
[19] | 6.65
[21] | 10.4
[27] | 8.8
